Read-outs that look alike come from different tables or passages of the source. Non-standard residues stand in square brackets, D forms with d. Residues, ends and D or L forms follow the SMILES beside them. hArg = N=C(N)NCCCC[C@H](N)C(=O)O; Dab = NCC[C@H](N)C(=O)O Some results are limits rather than exact numbers.

Consider 21 compounds from PMC6379670, “An ultra-high affinity ligand of HIV-1 TAR reveals the RNA structure recognized by P-TEFb” (Nucleic Acids Research, 2018).

One data set deals with JB181 (synthetic). In words: EMSA. On the technique in general: A gel shift assay detects complexes by their altered migration in electrophoresis.
The next data set addresses HIV-1 TAR RNA. In kind it is binding. The settings on record: EMSA. As to the method:
(§1) Electro Mobility Shift Assays (EMSA) and 2-aminopurine fluorescence ([35]) were used to measure peptide binding. For EMSA, all RNAs were 5′-dephosphorylated ([25],[26]) and 5′-rephosphorylated using T4 Polynucleotide Kinase (PNK); shifts were performed and analyzed as previously described ([14]). The P-TEFb/Tat1:57/AFF4 binding assays were run as described ([11]), with protein samples generously donated by Drs Ursula Schulze-Gahmen and James Hurley, but binding buffers contained 250× fold excess yeast tRNA. JB181-bound samples were prepared with 3× excess labeled HIV-TAR prior to titration with the pre-formed P-TEFb/Tat1:57/AFF4 complex.
(§2) Fig. S1. a) HIV-1 TAR, BIV TAR and 7SK-SL4 RNAs have similar secondary structures, but the JB181 peptide discriminates between them. […]
(§3) tightly than BIV TAR (3.3 nM) or 7SK (>3 μM) RNAs. b) EMSA of representative JB-peptides with 32P radiolabeled HIV-1 TAR RNA ([RNA]=75pM). The peptide concentration increases from left to right, as indicated. The dissociation constant can be estimated by the peptide concentration where there is an approximate 1:1 ratio (as established by visual inspection) between free RNA and complex, since the RNA concentration is much lower than the KD.
(§4) (1 picture or pasted object on this page, not shown here)

The next data set deals with BIV TAR RNA. The experiment in a line: EMSA binding to BIV TAR. The settings on record: positional scanning library, Table S1. On the procedure:
as §1, §2, §3, §4

Setting [1] is: positional scanning library, Table S1, with tRNA, read-out: Kd (nM) w/tRNA.
The mark [2] stands for this setting: positional scanning library, Table S1, without tRNA, read-out: Kd (nM) no tRNA.

In the data set on JB181 (synthetic), HIV-1 TAR A35C displayed a Kd of less than 1.3 nM.
Consider 7SK-SL4, for which the Kd with JB181 (synthetic) (EMSA: 32P RNA (75-100 pM), 250-fold excess tRNA, buffer as in cited work (not given), 2-AP fluorescence: 100 fM RNA, NMR: 10 mM K phosphate pH 6.5, 10 mM NaCl …) is greater than 3000 nM.
GGCUCGUGUAGCUCAUUAGCUCCGAGCC [BIV TAR] gave a Kd in the data set on JB181 (synthetic) of 3.3 nM.
With `CC[C@H](C)[C@@H]1NC(=O)[C@H](CCCNC(=N)N)NC(=O)[C@H](CCCNC(=N)N)NC(=O)CNC(=O)[C@H](CCCCN)NC(=O)[C@H](CCCNC(=N)N)NC(=O)[C@H]([C@@H](C)O)NC(=O)[C@H](CCCNC(=N)N)NC(=O)[C@H](C(C)C)NC(=O)[C@H](CCCCN)NC(=O)[C@@H]2CCCN2C(=O)[C@H]2CCCN2C(=O)[C@H]([C@@H](C)CC)NC(=O)[C@H](CCCNC(=N)N)NC1=O` [JB-60] (cyclo(KVRTRKGRRIRI[dP]P)), the figures for the Kd at HIV-1 TAR RNA (setting [1]), on HIV-1 TAR RNA (setting [2]) and at BIV TAR RNA were 300 nM, 3 nM and greater than 5000 nM, respectively.
In the case of HIV-1 TAR G33A, G34A, G21A, the Kd in the data set with JB181 (synthetic) was 70 nM.
For `CC[C@H](C)[C@@H]1NC(=O)[C@H](CCCNC(=N)N)NC(=O)[C@H](C(C)C)NC(=O)[C@H](CCCNC(=N)N)NC(=O)[C@H](CCCNC(=N)N)NC(=O)CNC(=O)[C@H](CCCCN)NC(=O)[C@H](CCCNC(=N)N)NC(=O)[C@H]([C@@H](C)O)NC(=O)[C@H](CCCNC(=N)N)NC(=O)[C@H](C(C)C)NC(=O)[C@H](CCCNC(=N)N)NC(=O)[C@@H]2CCCN2C(=O)[C@H]2CCCN2C1=O` [JB-76] (cyclo(RVRTRKGRRVRI[dP]P)), the results for the Kd on HIV-1 TAR RNA (setting [1]), on HIV-1 TAR RNA (setting [2]) and on BIV TAR RNA were less than 50 nM, 1 nM and 1 nM, respectively.
In the case of `CC[C@H](C)[C@@H]1NC(=O)[C@H](CCCNC(=N)N)NC(=O)[C@H](CCCNC(=N)N)NC(=O)CNC(=O)[C@H](CCCCN)NC(=O)[C@H](CCCNC(=N)N)NC(=O)[C@H]([C@@H](C)O)NC(=O)[C@H](CCCNC(=N)N)NC(=O)[C@H](C)NC(=O)[C@H](CCCNC(=N)N)NC(=O)[C@@H]2CCCN2C(=O)[C@H]2CCCN2C(=O)[C@H]([C@@H](C)CC)NC(=O)[C@H](CCCNC(=N)N)NC1=O` [JB-66] (cyclo(RARTRKGRRIRI[dP]P)), the Kd at HIV-1 TAR RNA (setting [1]) came to 100 nM; on HIV-1 TAR RNA (setting [2]), 1 nM; at BIV TAR RNA it was 1 nM.
For `CC[C@H](C)[C@@H]1NC(=O)[C@H](CCCNC(=N)N)NC(=O)[C@H](CCCNC(=N)N)NC(=O)CNC(=O)[C@H](CCCCN)NC(=O)[C@H](CCCNC(=N)N)NC(=O)[C@H]([C@@H](C)O)NC(=O)[C@H](CCCNC(=N)N)NC(=O)[C@H](C(C)C)NC(=O)[C@H](CCCNC(=N)N)NC(=O)[C@@H]2CCCN2C(=O)[C@H]2CCCN2C(=O)[C@H](C(C)C)NC(=O)[C@H](CCCNC(=N)N)NC1=O` [JB-84] (cyclo(RVRTRKGRRIRV[dP]P)), the Kd on HIV-1 TAR RNA (setting [1]) stood at 50 nM; at HIV-1 TAR RNA (setting [2]) it was 1 nM; on BIV TAR RNA it was 1 nM.
With `CC[C@H](C)[C@@H]1NC(=O)[C@H](CCCNC(=N)N)NC(=O)[C@H](CCCNC(=N)N)NC(=O)CNC(=O)[C@H](CCCCN)NC(=O)[C@H](CCCNC(=N)N)NC(=O)[C@H]([C@@H](C)O)NC(=O)[C@H](CCCNC(=N)N)NC(=O)[C@H](Cc2ccc(O)cc2)NC(=O)[C@H](CCCNC(=N)N)NC(=O)[C@@H]2CCCN2C(=O)[C@H]2CCCN2C(=O)[C@H]([C@@H](C)CC)NC(=O)[C@H](CCCNC(=N)N)NC1=O` [JB-62] (cyclo(RYRTRKGRRIRI[dP]P)), the Kd is 150 nM on HIV-1 TAR RNA (setting [1]), 1 to 5 nM at HIV-1 TAR RNA (setting [2]) and 10 nM at BIV TAR RNA.
HIV-1 TAR A35del showed a Kd with JB181 (synthetic) of less than 1.3 nM.
As to HIV-1 TAR A35G, G28A, the Kd with JB181 (synthetic) amounted to 11 nM.
Consider `CC[C@H](C)[C@@H]1NC(=O)[C@H](CCCNC(=N)N)NC(=O)[C@H](CCCNC(=N)N)NC(=O)CNC(=O)[C@H](CCCCN)NC(=O)[C@H](CCCNC(=N)N)NC(=O)[C@H]([C@@H](C)O)NC(=O)[C@H](CCCNC(=N)N)NC(=O)[C@H](C(C)C)NC(=O)[C@H](CCCNC(=N)N)NC(=O)[C@@H]2CCCN2C(=O)[C@H]2CCCN2C(=O)[C@H](CC(C)C)NC(=O)[C@H](CCCNC(=N)N)NC1=O` [JB-85] (cyclo(RVRTRKGRRIRL[dP]P)), for which the Kd at HIV-1 TAR RNA (setting [1]) amounted to 50 nM; on HIV-1 TAR RNA (setting [2]) it was 5 nM; at BIV TAR RNA, 1 nM.
On to `CC[C@H](C)[C@@H]1NC(=O)[C@H](CCCNC(=N)N)NC(=O)[C@H](C)NC(=O)[C@H](CCCNC(=N)N)NC(=O)[C@H](CCCNC(=N)N)NC(=O)CNC(=O)[C@H](CCCCN)NC(=O)[C@H](CCCNC(=N)N)NC(=O)[C@H]([C@@H](C)O)NC(=O)[C@H](CCCNC(=N)N)NC(=O)[C@H](C(C)C)NC(=O)[C@H](CCCNC(=N)N)NC(=O)[C@@H]2CCCN2C(=O)[C@H]2CCCN2C1=O` [JB-75] (cyclo(RVRTRKGRRARI[dP]P)), for which the Kd at HIV-1 TAR RNA (setting [1]) was 300 nM; at HIV-1 TAR RNA (setting [2]), 5 nM; on BIV TAR RNA, 1 to 5 nM.
As to HIV-1 TAR G32A, G36A, the Kd with JB181 (synthetic) was less than 0.166 nM.
As for HIV-1 TAR A35G, G28C, in the data set with JB181 (synthetic), the Kd came out at 10 nM.
In the case of `CC[C@H](C)[C@@H]1NC(=O)[C@H](CCCCNC(=N)N)NC(=O)[C@H](CCCNC(=N)N)NC(=O)CNC(=O)[C@H](CCCCN)NC(=O)[C@H](CCCNC(=N)N)NC(=O)[C@H]([C@@H](C)O)NC(=O)[C@H](CCCNC(=N)N)NC(=O)[C@H](C(C)C)NC(=O)[C@H](CCCNC(=N)N)NC(=O)[C@@H]2CCCN2C(=O)[C@H]2CCCN2C(=O)[C@H]([C@@H](C)CC)NC(=O)[C@H](CCCNC(=N)N)NC1=O` [KP-Y-05] (cyclo(RVRTRKGR[hArg]IRI[dP]P)), the Kd at HIV-1 TAR RNA (setting [1]) stood at 100 nM.
For the compound `CC[C@H](C)[C@@H]1NC(=O)[C@H](CCCNC(=N)N)NC(=O)[C@H](CCCNC(=N)N)NC(=O)CNC(=O)[C@H](CCCCN)NC(=O)[C@H](CCCNC(=N)N)NC(=O)[C@H]([C@@H](C)O)NC(=O)[C@H](CCCNC(=N)N)NC(=O)[C@H](C(C)C)NC(=O)[C@H](CCN)NC(=O)[C@@H]2CCCN2C(=O)[C@H]2CCCN2C(=O)[C@H]([C@@H](C)CC)NC(=O)[C@H](CCCNC(=N)N)NC1=O` [JB59] (cyclo([Dab]VRTRKGRRIRI[dP]P)), the Kd at HIV-1 TAR RNA (32P radiolabeled HIV-1 TAR RNA, [RNA]=75pM, Table 1, read-out: K D (HIV)) was determined as 1 ± 0.3 nM.
In the data set with JB181 (synthetic), HIV-1 TAR U25C displayed a Kd of 1 nM.
In the case of `CC[C@H](C)[C@@H]1NC(=O)[C@H](CCCNC(=N)N)NC(=O)[C@H](CCCNC(=N)N)NC(=O)CNC(=O)[C@H](CCCCN)NC(=O)[C@H](CCCNC(=N)N)NC(=O)[C@H]([C@@H](C)O)NC(=O)[C@H](CCCNC(=N)N)NC(=O)[C@H](C(C)C)NC(=O)[C@H](CCCNC(=N)N)NC(=O)[C@@H]2CCCN2C(=O)[C@H]2CCCN2C(=O)[C@H]([C@@H](C)CC)NC(=O)[C@H](Cc2c[nH]cn2)NC1=O` [JB-77] (cyclo(RVRTRKGRRIHI[dP]P)), the Kd on HIV-1 TAR RNA (setting [1]) was greater than 1000 nM.
For the compound `CC[C@H](C)[C@@H]1NC(=O)[C@H](CCCNC(=N)N)NC(=O)[C@H](CCCNC(=N)N)NC(=O)CNC(=O)[C@H](CCCCN)NC(=O)[C@H](CCCNC(=N)N)NC(=O)[C@H]([C@@H](C)O)NC(=O)[C@H](CCCNC(=N)N)NC(=O)[C@H](C(C)C)NC(=O)[C@H](CCCNC(=N)N)NC(=O)[C@@H]2CCCN2C(=O)[C@H]2CCCN2C(=O)[C@H](C)NC(=O)[C@H](CCCNC(=N)N)NC1=O` [JB-83] (cyclo(RVRTRKGRRIRA[dP]P)), the Kd on HIV-1 TAR RNA (setting [1]) was greater than 1000 nM.
Take `CC[C@H](C)[C@@H]1NC(=O)[C@H](CCCNC(=N)N)NC(=O)[C@H](Cc2c[nH]c3ccccc23)NC(=O)CNC(=O)[C@H](CCCCN)NC(=O)[C@H](CCCNC(=N)N)NC(=O)[C@H]([C@@H](C)O)NC(=O)[C@H](CCCNC(=N)N)NC(=O)[C@H](C(C)C)NC(=O)[C@H](CCCNC(=N)N)NC(=O)[C@@H]2CCCN2C(=O)[C@H]2CCCN2C(=O)[C@H]([C@@H](C)CC)NC(=O)[C@H](CCCNC(=N)N)NC1=O` [JB-70] (cyclo(RVRTRKGWRIRI[dP]P)): the Kd on HIV-1 TAR RNA (setting [1]) was greater than 1000 nM.
